The nature of this series: pKa and ionisation of active ingredients. The series is classed as physicochemical. To be noted: at a pH of 8.3.

The source of these data is patent US20060073189A1, “Chewing gums, lozenges, candies, tablets, liquids, and sprays for efficient delivery of medications and dietary supplements” (priority 2000, published 2006).

Consider `CN(C)CCOC(c1ccccc1)c1ccccc1` [diphenhydramine], for which the ionized was 50%.
